These results are taken from patent US20230167073A1 (Teijin Pharma Limited, priority 2020, published 2023).

Where only a bound is given, the exact number is not on record here.

This assay addresses T1, Human TRPC6 (Homo sapiens, UniProt Q9Y210).
T1 construct: expressed in transfected cells
T1 sequence (Q9Y210 1-931): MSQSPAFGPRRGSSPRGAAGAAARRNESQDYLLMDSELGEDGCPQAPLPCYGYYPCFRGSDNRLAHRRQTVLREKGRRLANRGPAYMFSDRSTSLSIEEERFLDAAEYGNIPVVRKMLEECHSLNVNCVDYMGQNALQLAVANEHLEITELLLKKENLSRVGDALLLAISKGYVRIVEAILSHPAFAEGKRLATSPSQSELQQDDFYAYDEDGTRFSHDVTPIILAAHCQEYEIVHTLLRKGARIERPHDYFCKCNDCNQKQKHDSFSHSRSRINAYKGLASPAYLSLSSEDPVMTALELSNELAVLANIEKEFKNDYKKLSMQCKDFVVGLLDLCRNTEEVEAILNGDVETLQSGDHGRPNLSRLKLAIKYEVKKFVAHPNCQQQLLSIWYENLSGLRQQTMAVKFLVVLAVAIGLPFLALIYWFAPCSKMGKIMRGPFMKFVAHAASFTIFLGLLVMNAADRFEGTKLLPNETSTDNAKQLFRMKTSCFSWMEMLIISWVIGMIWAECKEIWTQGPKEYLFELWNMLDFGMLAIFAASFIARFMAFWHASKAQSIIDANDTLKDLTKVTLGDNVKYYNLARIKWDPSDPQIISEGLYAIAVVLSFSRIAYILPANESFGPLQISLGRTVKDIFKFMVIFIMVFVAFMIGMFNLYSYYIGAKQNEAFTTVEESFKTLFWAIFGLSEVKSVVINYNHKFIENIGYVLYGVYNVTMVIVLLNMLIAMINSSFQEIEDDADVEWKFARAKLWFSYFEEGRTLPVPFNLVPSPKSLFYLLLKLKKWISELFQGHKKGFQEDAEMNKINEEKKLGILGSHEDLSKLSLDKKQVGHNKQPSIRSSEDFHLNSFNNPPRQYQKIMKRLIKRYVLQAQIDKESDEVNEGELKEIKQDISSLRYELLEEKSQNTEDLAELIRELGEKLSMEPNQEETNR
In words: Evaluation of TRPC6 channel inhibitory activity (1), FLIPR Calcium 5 Assay Kit, OAG stimulation (Compound Nos. 1-1293). The format is cell-based. To be noted: Human TRPC6 stably-expressing cells, OAG 30 μM, FLIPR Calcium 5 Assay Kit; read-out: Inhibitory activity (pIC50 class) (converted). An outline of the steps: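 Cells stably expressing human TRPC6, plated 24 h before, were loaded 30 min with Calcium 5 dye plus probenecid in HEPES-HBSS. Compound was added 20 min before OAG (30 μM final) and fluorescence tracked on FLIPR. Inhibition normalised to no-compound and no-compound/no-OAG wells; pIC50 from four-parameter fit, reported as +/++/+++ categories.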
On to `N#Cc1ccc(-c2ccc(CCN)cn2)c(Oc2nnc(N3CCOCC3)s2)c1` [compound 717, 4-[5-(2-aminoethyl)pyridin-2-yl]-3-[(5-morpholin-4-yl-1,3,4-thiadiazol-2-yl)oxy]benzonitrile], for which the IC50 was 0.01 to 1 µM. For `Cc1sc(N2CCOCC2)nc1C(=O)c1cc(C#N)ccc1-c1ccc(CCN)cn1` [compound 1068, 4-[5-(2-aminoethyl)pyridin-2-yl]-3-(5-methyl-2-morpholin-4-yl-1,3-thiazole-4-carbonyl)benzonitrile], the IC50 is 0.01 to 1 µM.

Turning to `Cn1nc(-c2ccccc2)cc1Oc1cc(C#N)ccc1-c1ccc(C(F)(F)CN)cn1` [compound 308, 4-[5-(2-amino-1,1-difluoroethyl)pyridin-2-yl]-3-(2-methyl-5-phenylpyrazol-3-yl)oxybenzonitrile], the IC50 was 0.01 to 1 µM.

With `Cc1ccc(-c2cc(Oc3cc(C#N)ccc3-n3cc(C(O)CN)cn3)nc(C)n2)cc1` (centres unmarked) [Compound 142, 4-[4-(2-amino-1-hydroxyethyl)pyrazol-1-yl]-3-[2-methyl-6-(4-methylphenyl)pyrimidin-4-yl]oxybenzonitrile], the IC50 was 0.01 to 1 µM. For `N#Cc1ccc(-c2ncc(CCN)cn2)c(Oc2cnnc(N3CCOCC3)c2)c1` [compound 620, 4-[5-(2-aminoethyl)pyrimidin-2-yl]-3-(6-morpholin-4-ylpyridazin-4-yl)oxybenzonitrile] the value was 0.01 to 1 µM; for `Cc1cc(Oc2cc(C#N)ccc2-c2ccc([C@H](O)CN)cn2)cc(N2CCOC(C)(C)C2)n1` [compound 531, 4-[5-[(1S)-2-amino-1-hydroxyethyl]pyridin-2-yl]-3-[2-(2,2-dimethylmorpholin-4-yl)-6-methylpyridin-4-yl]oxybenzonitrile], less than 0.01 µM. With `N#Cc1ccc(-c2ccc(CCN)cn2)c(Oc2nnc(C(F)(F)F)s2)c1` [Compound No. 712, 4-[5-(2-Aminoethyl)pyridin-2-yl]-3-[[5-(trifluoromethyl)-1,3,4-thiadiazol-2-yl]oxy]benzonitrile] the figure was 0.01 to 1 µM; with `N#Cc1ccc(-c2ncc(CN)cn2)c(Oc2nnc(-c3ccccn3)s2)c1` [compound 699, 4-[5-(aminomethyl)pyrimidin-2-yl]-3-[(5-pyridin-2-yl-1,3,4-thiadiazol-2-yl)oxy]benzonitrile], more than 1 µM; with `Cc1ccnc(-c2cc(Oc3cc(C#N)ccc3-c3ncc(CN)cn3)n(C)n2)c1` [compound 652, 4-[5-(aminomethyl)pyrimidin-2-yl]-3-[2-methyl-5-(4-methylpyridin-2-yl)pyrazol-3-yl]oxybenzonitrile], less than 0.01 µM. For `N#Cc1ccc(-n2cc(CCN)cn2)c(Oc2cnnc(N3CCCC3)c2)c1` [Compound 284, 4-[4-(2-Aminoethyl)pyrazol-1-yl]-3-(6-pyrrolidin-1-ylpyridazin-4-yl)oxybenzonitrile] the value was 0.01 to 1 µM; for `Cc1nc(Oc2cc(C#N)ccc2-c2ccc(CCN)cc2)cc(-c2ccsc2)n1` [Compound 32, 4-[4-(2-aminoethyl)phenyl]-3-(2-methyl-6-thiophen-3-ylpyrimidin-4-yl)oxybenzonitrile], less than 0.01 µM.

As to `Cc1cc(Oc2cc(C#N)ccc2-c2ncc(CCN)cn2)cc(N2CCOC[C@H]2C)n1` [compound 470, 4-[5-(2-aminoethyl)pyrimidin-2-yl]-3-[2-methyl-6-[(3R)-3-methylmorpholin-4-yl]pyridin-4-yl]oxybenzonitrile], the IC50 was less than 0.01 µM.

Consider `Cc1cc(Oc2cc(C#N)ccc2-c2ccc(C(C)N)cn2)cc(N2CCOCC2)n1` (centres unmarked) [compound 398, 4-[5-(1-aminoethyl)pyridin-2-yl]-3-(2-methyl-6-morpholin-4-ylpyridin-4-yl)oxybenzonitrile], for which the IC50 is less than 0.01 µM. For `N#Cc1ccc(-n2cc(CCN)cn2)c(Sc2cnnc(N3CCOCC3)c2)c1` [compound 1245, 4-[4-(2-aminoethyl)pyrazol-1-yl]-3-(6-morpholin-4-ylpyridazin-4-yl)sulfanylbenzonitrile] the value was 0.01 to 1 µM. With `CN(C)c1cc(Sc2cc(C#N)ccc2-c2ccc(CN)cn2)cnn1` [compound 1266, 4-[5-(aminomethyl)pyridin-2-yl]-3-[6-(dimethylamino)pyridazin-4-yl]sulfanylbenzonitrile] the figure was 0.01 to 1 µM; with `Cc1cc(Cc2cc(C#N)ccc2-c2ncc(CCN)cn2)cc(N2CCOCC2)n1` [compound 1204, 4-[5-(2-aminoethyl)pyrimidin-2-yl]-3-[(2-methyl-6-morpholin-4-ylpyridin-4-yl)methyl]benzonitrile], 0.01 to 1 µM; with `Cc1nc(Oc2cc(C#N)ccc2-c2ccc(CCN)cc2)cc(N2CC(F)(F)C2)n1` [Compound 24, 4-[4-(2-aminoethyl)phenyl]-3-[6-(3,3-difluoroazetidin-1-yl)-2-methylpyrimidin-4-yl]oxybenzonitrile], 0.01 to 1 µM. Regarding `CC(C)Nc1cc(Sc2cc(C#N)ccc2-c2ncc(CN)cn2)cnn1` [compound 1272, 4-[5-(aminomethyl)pyrimidin-2-yl]-3-[6-(propan-2-ylamino)pyridazin-4-yl]sulfanylbenzonitrile], the IC50 was 0.01 to 1 µM. With `Cc1nn(CC(C)(C)C)cc1Oc1cc(C#N)ccc1-c1ncc(CCN)cn1` [compound 937, 4-[5-(2-aminoethyl)pyrimidin-2-yl]-3-[1-(2,2-dimethylpropyl)-3-methylpyrazol-4-yl]oxybenzonitrile] the figure was less than 0.01 µM; with `Cc1cc(Oc2cc(C#N)ccc2-c2ccc(N3CC(N)CC3=O)cn2)cc(N2CCOCC2)n1` (centres unmarked) [compound 568, 4-[5-(4-amino-2-oxopyrrolidin-1-yl)pyridin-2-yl]-3-(2-methyl-6-morpholin-4-ylpyridin-4-yl)oxybenzonitrile], more than 1 µM. With `N#Cc1ccc(-c2ccc(CCN)cn2)c(Oc2cc(N3CCOCC3)nc(C(F)(F)F)n2)c1` [Compound 148, 4-[5-(2-aminoethyl)pyridin-2-yl]-3-[6-morpholin-4-yl-2-(trifluoromethyl)pyrimidin-4-yl]oxybenzonitrile] the figure was 0.01 to 1 µM; with `Cc1cc(Oc2nc(C#N)ccc2-c2ccc(CCN)cn2)cc(N2CCCC2)n1` [compound 1282, 5-[5-(2-aminoethyl)pyridin-2-yl]-6-(2-methyl-6-pyrrolidin-1-ylpyridin-4-yl)oxypyridine-2-carbonitrile], 0.01 to 1 µM; with `N#Cc1ccc(-c2ncc(CCN)cn2)c(Cn2cc(C3CC3)nn2)c1` [Compound No. 1187, 4-[5-(2-Aminoethyl)pyrimidin-2-yl]-3-[(4-cyclopropyltriazol-1-yl)methyl]benzonitrile], less than 0.01 µM. For `N#Cc1ccc(-c2ncc(CCN)cn2)c(Oc2nnc(N3CC(F)C3)s2)c1` [compound 722, 4-[5-(2-aminoethyl)pyrimidin-2-yl]-3-[[5-(3-fluoroazetidin-1-yl)-1,3,4-thiadiazol-2-yl]oxy]benzonitrile] the value was 0.01 to 1 µM; for `Cc1cc(Oc2cc(C#N)ccc2-c2ncc([C@H](O)CN)cn2)cc(-c2ncc(C)s2)n1` [compound 601, 4-[5-[(1S)-2-amino-1-hydroxyethyl]pyrimidin-2-yl]-3-[2-methyl-6-(5-methyl-1,3-thiazol-2-yl)pyridin-4-yl]oxybenzonitrile], 0.01 to 1 µM.

As for `CCN(CC)c1cc(Oc2cc(C#N)ccc2-c2ccc([C@H](F)CN)cn2)n(C)n1` [compound 915, 4-[5-[(1S)-2-amino-1-fluoroethyl]pyridin-2-yl]-3-[5-(diethylamino)-2-methylpyrazol-3-yl]oxybenzonitrile], the IC50 was less than 0.01 µM. For `Cc1nc(CN2CCC(F)CC2)cn1Cc1cc(C#N)ccc1-c1ncc(CCN)cn1` [compound 1177, 4-[5-(2-aminoethyl)pyrimidin-2-yl]-3-[[4-[(4-fluoropiperidin-1-yl)methyl]-2-methylimidazol-1-yl]methyl]benzonitrile] the value was more than 1 µM. In the case of `Cc1cc(Oc2cc(C#N)ccc2-c2ncc([C@H](O)CN)cn2)cc(N2C[C@@H]3C[C@H]2CO3)n1` [compound 528, 4-[5-[(1S)-2-amino-1-hydroxyethyl]pyrimidin-2-yl]-3-[2-methyl-6-[(1S,4S)-2-oxa-5-azabicyclo[2.2.1]heptan-5-yl]pyridin-4-yl]oxybenzonitrile], the IC50 was 0.01 to 1 µM. With `Cn1nc(N2CCCCC2)cc1Oc1cc(C#N)ccc1-c1ccc(CN)cn1` [compound 621, 4-[5-(aminomethyl)pyridin-2-yl]-3-(2-methyl-5-piperidin-1-ylpyrazol-3-yl)oxybenzonitrile] the figure was less than 0.01 µM.
